From patent publication US7157430B2, “(Substituted)acyl dipeptidyl inhibitors of the ICE/CED-3 family of cysteine proteases” (Idun Pharmaceuticals, Inc., priority 1998, dated 2007)
Like-named read-outs stand apart in the source and are kept apart here. Where a SMILES comes first, the peptide text is derived from it. The star is where a group is joined. Cbz = O=C(OCc1ccccc1)*

Key:
Type in all cases: biochemical
MCH-2 = target: T1, MCH-2 (Homo sapiens, UniProt P55212); test: Fluorescence enzyme assay, IC50 determination, Mch2
T1 sequence (P55212 24-179 limits assumed): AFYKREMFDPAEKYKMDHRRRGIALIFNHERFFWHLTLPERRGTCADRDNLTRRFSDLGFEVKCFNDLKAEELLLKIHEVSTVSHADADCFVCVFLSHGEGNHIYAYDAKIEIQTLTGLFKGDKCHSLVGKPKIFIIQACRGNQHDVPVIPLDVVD
T1 sequence (P55212 194-293 limits assumed): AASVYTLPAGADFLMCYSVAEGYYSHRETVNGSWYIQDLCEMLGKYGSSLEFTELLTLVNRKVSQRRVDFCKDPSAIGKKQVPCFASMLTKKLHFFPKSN
Experimental: (§1) Fluorescence enzyme assays detecting the activity of the compounds of Formula 1 utilizing the recombinant ICE and CPP32 enzymes are performed essentially according to Thornberry et al. (Nature, 356:768:774 (1992)) and Nicholson et al. (Nature, 376:37–43 (1995)) respectively, (herein incorporated by reference) in 96 well microtiter plates. The substrate is Acetyl-Tyr-Val-Ala-Asp-amino-4-methylcoumarin (AMC) for the ICE assay and Acetyl-Asp-Glu-Val-Asp-amino-4-methylcoumarin for the CPP32, Mch2, Mch3 and Mch5 assays. Enzyme reactions are run in ICE buffer (25 mM HEPES, 1 mM EDTA, 0.1% CHAPS, 10% sucrose, pH 7.5) containing 2 mM DTT at room temperature in duplicate.
(§2) The enzyme and the compound of Formula I to be assayed are allowed to preincubate in the microtitre plate wells for 30 minutes at room temperature prior to the addition of substrate to initiate the reaction. Fluorescent AMC product formation is monitored for one hour at room temperature by measuring the fluorescence emission at 460 nm using an excitation wavelength of 360 nm. The fluorescence change in duplicate (control) wells are averaged and the mean values are plotted as a function of inhibitor concentration to determine the inhibitor concentration producing 50% inhibition (IC50). The results of this assay are set forth below in Table 1 and in Table 3 (for Table 3, see Examples 11 through 52).
(§3) The reference compound for this assay was Cbz-ValAlaAsp-H and the values are denoted in Table 1 as “Reference”.

mICE = target: T2, mICE (Mus musculus, UniProt P29452); test: Fluorescence enzyme assay, IC50 determination, ICE
T2 sequence (P29452 123-296 limits assumed): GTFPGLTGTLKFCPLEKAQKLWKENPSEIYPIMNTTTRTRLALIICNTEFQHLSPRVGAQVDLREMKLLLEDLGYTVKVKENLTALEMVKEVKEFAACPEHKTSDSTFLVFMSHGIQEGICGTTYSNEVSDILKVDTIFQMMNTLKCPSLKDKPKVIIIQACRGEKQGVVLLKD
T2 sequence (P29452 315-402 limits assumed): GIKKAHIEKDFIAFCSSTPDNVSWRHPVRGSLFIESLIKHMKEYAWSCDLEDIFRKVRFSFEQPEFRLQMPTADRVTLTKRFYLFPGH
Experimental: as §1, §2, §3

MCH-3 = target: T3, MCH-3 (Homo sapiens, UniProt P55210); test: Fluorescence enzyme assay, IC50 determination, Mch3
T3 sequence (P55210 24-198 limits assumed): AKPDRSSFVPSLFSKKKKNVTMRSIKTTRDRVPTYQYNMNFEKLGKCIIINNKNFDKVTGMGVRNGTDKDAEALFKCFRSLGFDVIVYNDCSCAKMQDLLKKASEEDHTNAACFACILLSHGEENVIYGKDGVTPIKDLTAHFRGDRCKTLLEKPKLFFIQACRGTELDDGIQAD
T3 sequence (P55210 207-303 limits assumed): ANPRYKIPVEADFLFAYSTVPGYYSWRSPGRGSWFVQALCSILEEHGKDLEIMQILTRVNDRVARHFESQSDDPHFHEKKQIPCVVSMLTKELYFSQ
Experimental: as §1, §2, §3

MCH-5 = MCH-5 (Homo sapiens, UniProt Q14790); test: Fluorescence enzyme assay, IC50 determination, Mch5
Chain of MCH-5 (Q14790 217-374 limits assumed, species assumed): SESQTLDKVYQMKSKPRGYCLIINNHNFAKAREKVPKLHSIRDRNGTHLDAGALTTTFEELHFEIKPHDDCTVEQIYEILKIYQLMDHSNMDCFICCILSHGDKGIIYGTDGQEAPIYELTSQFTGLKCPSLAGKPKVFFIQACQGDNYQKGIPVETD
Chain of MCH-5 (Q14790 385-479 limits assumed, species assumed): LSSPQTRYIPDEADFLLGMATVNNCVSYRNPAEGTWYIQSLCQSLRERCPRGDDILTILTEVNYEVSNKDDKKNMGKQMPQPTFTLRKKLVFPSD
Experimental: as §1, §2, §3

CPP32 = target: T4, CPP32 (Homo sapiens, UniProt P42574); test: Fluorescence enzyme assay, IC50 determination, CPP32
T4 sequence (P42574 29-175 limits assumed): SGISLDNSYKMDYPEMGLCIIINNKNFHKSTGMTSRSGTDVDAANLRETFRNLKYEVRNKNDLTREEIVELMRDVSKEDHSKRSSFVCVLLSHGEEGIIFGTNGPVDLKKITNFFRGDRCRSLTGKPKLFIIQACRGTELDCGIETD
T4 sequence (P42574 176-277 limits assumed): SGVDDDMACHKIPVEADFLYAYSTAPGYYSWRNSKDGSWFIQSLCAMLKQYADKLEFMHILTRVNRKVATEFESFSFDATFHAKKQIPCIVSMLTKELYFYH
Experimental: as §1, §2, §3

[1] = Table 3, method of Preparation 3A, read-out: MCH2 I50
[2] = Table 3, method of Preparation 3A, read-out: mICE I50
[3] = Table 3, method of Preparation 3A, read-out: MCH3 I50
[4] = Table 3, method of Preparation 3A, read-out: MCH5 I50
[5] = Table 3, method of Preparation 3A, read-out: CPP32 I50
[6] = Ac-DEVD-AMC substrate, 30 min preincubation, room temperature, read-out: MCH-2 IC50
[7] = recombinant enzyme, Ac-YVAD-AMC substrate, 30 min preincubation, room temperature, read-out: mICE IC50
[8] = Ac-DEVD-AMC substrate, 30 min preincubation, room temperature, read-out: MCH-3 IC50
[9] = Ac-DEVD-AMC substrate, 30 min preincubation, room temperature, read-out: MCH-5 IC50
[10] = recombinant enzyme, Ac-DEVD-AMC substrate, 30 min preincubation, room temperature, read-out: CPP32 IC50

Compound | IC50 (MCH-2; [1]) [nM] | IC50 (mICE; [2]) [nM] | IC50 (MCH-3; [3]) [nM] | IC50 (MCH-5; [4]) [nM] | IC50 (CPP32; [5]) [nM] | IC50 (MCH-2; [6]) [nM] | IC50 (mICE; [7]) [nM] | IC50 (MCH-3; [8]) [nM] | IC50 (MCH-5; [9]) [nM] | IC50 (CPP32; [10]) [nM]
CC(C)C[C@H](NC(=O)COc1ccnc2ccccc12)C(=O)N[C@H](C=O)CC(=O)O [Example 31] | > 50000 | 35300 | 4570 | > 50000 | 232 |  |  |  |  | 
CC(C)C[C@H](NC(=O)COc1cccc2cccnc12)C(=O)N[C@H](C=O)CC(=O)O [Example 34] | 12500 | 13700 | 1510 | 2240 | 147 |  |  |  |  | 
CC(C)C[C@H](NC(=O)CSc1ccc2ccccc2c1)C(=O)N[C@H](C=O)CC(=O)O [Example 17] | 3160 | 792 | 2520 | 11000 | 269 |  |  |  |  | 
CC(C)C[C@H](NC(=O)CCSc1ccc2ccccc2c1)C(=O)N[C@H](C=O)CC(=O)O [Example 25] | 1620 | 611 | 5890 | 15000 | 837 |  |  |  |  | 
CC(C)C[C@H](NC(=O)COc1cccc2c1OC(C)(C)C2)C(=O)N[C@H](C=O)CC(=O)O [Example 10, (3S)-3-[N-((2,3-Dihydro-2,2-Dimethyl-Benzofuranyloxy)Acetyl)Leucinyl]Amino-4-Oxobutanoic Acid] |  |  |  |  |  | 13100 | 6340 | 2320 | 6340 | 241
O=C[C@H](CC(=O)O)NC(=O)[C@@H]1Cc2ccccc2N1C(=O)COc1cccc2ccccc12 [Example 186, (2′S,3S)-3-[N-((1-Naphthyloxy)Acetyl)Indoline-2′-Carbonyl]Amino-4-Oxobutanoic Acid] |  |  |  |  |  | > 50000 | 298 | > 50000 | 39800 | 25300
CC(C)C[C@H](NC(=O)COc1ccc2c(c1)CCCC2)C(=O)N[C@H](C=O)CC(=O)O [Example 52] | 28600 | 2570 | 2310 | 4950 | 162 |  |  |  |  | 
CC(C)C[C@H](NC(=O)CCCc1ccc2ccccc2c1)C(=O)N[C@H](C=O)CC(=O)O [Example 18] | 14500 | 1800 | 18200 | > 50000 | 2760 |  |  |  |  | 
CC(C)C[C@H](NC(=O)COc1cccc2ncccc12)C(=O)N[C@H](C=O)CC(=O)O [Example 32] | > 50000 | 5250 | 3850 | 4020 | 412 |  |  |  |  | 
CC(C)C[C@H](NC(=O)COc1cccc2cnccc12)C(=O)N[C@H](C=O)CC(=O)O [Example 33] | 42700 | 5140 | 3480 | 3640 | 407 |  |  |  |  | 

Other lines, results leading:

IC50 (MCH-2; [1]) [nM] | IC50 (mICE; [2]) [nM] | IC50 (MCH-3; [3]) [nM] | IC50 (MCH-5; [4]) [nM] | IC50 (CPP32; [5]) [nM] | IC50 (MCH-2; [6]) [nM] | IC50 (mICE; [7]) [nM] | IC50 (MCH-3; [8]) [nM] | IC50 (MCH-5; [9]) [nM] | IC50 (CPP32; [10]) [nM] | Compound
14500 | 1100 | 3750 | 3860 | 311 |  |  |  |  |  | CC(C)C[C@H](NC(=O)COc1cccc(-c2ccccc2)c1)C(=O)N[C@H](C=O)CC(=O)O [Example 40]
11800 | 408 | 11300 | 11200 | 967 |  |  |  |  |  | CC(C)C[C@H](NC(=O)CCC(=O)c1cccc2ccccc12)C(=O)N[C@H](C=O)CC(=O)O [Example 19]
9750 | 2400 | 2200 | 4340 | 222 |  |  |  |  |  | CC(C)C[C@H](NC(=O)COc1ccccc1OCc1ccccc1)C(=O)N[C@H](C=O)CC(=O)O [Example 45]
717 | 636 | 2020 | 1710 | 95 |  |  |  |  |  | CC(C)C[C@H](NC(=O)COc1ccccc1-c1ccccc1)C(=O)N[C@H](C=O)CC(=O)O [Example 39]
 |  |  |  |  | 1900 | 1890 | 17000 | 200 | 731 | CC(C)[C@H](NC(=O)COc1cc2ccccc2cc1C(=O)O)C(=O)N[C@H](C=O)CC(=O)O [Example 7, (3S)-3-[N-((3′-Carboxy-2′-Naphthyloxy)Acetyl)Valinyl]Amino-4-Oxobutanoic Acid]
 |  |  |  |  | > 10000 | 64 | > 10000 | 2960 | 47000 | CC(C)[C@H](NC(=O)OCc1ccccc1)C(=O)N[C@@H](C)C(=O)N[C@H](C=O)CC(=O)O [reference, Cbz-ValAlaAsp-H, reference compound] (Cbz-Val-Ala-Asp-aldehyde)
2720 | 563 | 3600 | 16300 | 412 |  |  |  |  |  | CC(C)C[C@H](NC(=O)CCSc1cccc2ccccc12)C(=O)N[C@H](C=O)CC(=O)O [Example 24]
22600 | 831 | 4080 | 1450 | 263 |  |  |  |  |  | COc1ccc(OCC(=O)N[C@@H](CC(C)C)C(=O)N[C@H](C=O)CC(=O)O)c2ccccc12 [Example 27]
12000 | 429 | 3380 | 1690 | 231 |  |  |  |  |  | CC(C)C[C@H](NC(=O)COc1ccc(Cl)c2ccccc12)C(=O)N[C@H](C=O)CC(=O)O [Example 28]
 |  |  |  |  | > 10000 | 336 | 2100 | 1200 | 355 | CC(C)[C@H](NC(=O)COc1cccc2ccccc12)C(=O)N[C@H](C=O)CC(=O)O [Example 2, (3S)-3-[N-((1-Naphthyloxy)Acetyl)Valinyl]Amino-4-Oxobutanoic Acid]
846 | 597 | 1950 | 821 | 139 |  |  |  |  |  | CC(C)C[C@H](NC(=O)COc1cccc2ccccc12)C(=O)N[C@H](C=O)CC(=O)O [Example 12]
 |  |  |  |  | 3610 | 2960 | 10900 | 733 | 401 | CC(C)[C@H](NC(=O)COc1ccc2ccccc2c1C(=O)O)C(=O)N[C@H](C=O)CC(=O)O [Example 5, (3S)-3-[N-((1′-Carboxy-2′-Naphthyloxy)Acetyl)Valinyl]Amino-4-Oxobutanoic Acid]
 |  |  |  |  | 1430 | 385 | 1650 | 48 | 54 | CC(C)[C@H](NC(=O)COc1c(C(=O)O)ccc2ccccc12)C(=O)N[C@H](C=O)CC(=O)O [Example 6, (3S)-3-[N-((2′-Carboxy-1′-Naphthyloxy)Acetyl)Valinyl]Amino-4-Oxobutanoic Acid]
 |  |  |  |  | 1010 | 127 | 11000 | 615 | 207 | CC(C)[C@H](NC(=O)COc1cccc2c(NS(=O)(=O)C(F)(F)F)cccc12)C(=O)N[C@H](C=O)CC(=O)O [Example 188, (3S)-3-[N-((5′-Trifluoromethylsulfonylamino-1′-Naphthyloxy)Acetyl)Valinyl]Amino-4-Oxobutanoic Acid]
